In US10450306B2, “Isoxazole analogs as FXR agonists and methods of use thereof” (Enanta Pharmaceuticals, Inc., priority 2016, dated 2019):

Molecular target: T1, human FXR (NR1H4) (Homo sapiens, UniProt Q96RI1)
T1 construct: host or cells: CHO (Chinese hamster ovary) reporter cells
T1 sequence (Q96RI1 1-486): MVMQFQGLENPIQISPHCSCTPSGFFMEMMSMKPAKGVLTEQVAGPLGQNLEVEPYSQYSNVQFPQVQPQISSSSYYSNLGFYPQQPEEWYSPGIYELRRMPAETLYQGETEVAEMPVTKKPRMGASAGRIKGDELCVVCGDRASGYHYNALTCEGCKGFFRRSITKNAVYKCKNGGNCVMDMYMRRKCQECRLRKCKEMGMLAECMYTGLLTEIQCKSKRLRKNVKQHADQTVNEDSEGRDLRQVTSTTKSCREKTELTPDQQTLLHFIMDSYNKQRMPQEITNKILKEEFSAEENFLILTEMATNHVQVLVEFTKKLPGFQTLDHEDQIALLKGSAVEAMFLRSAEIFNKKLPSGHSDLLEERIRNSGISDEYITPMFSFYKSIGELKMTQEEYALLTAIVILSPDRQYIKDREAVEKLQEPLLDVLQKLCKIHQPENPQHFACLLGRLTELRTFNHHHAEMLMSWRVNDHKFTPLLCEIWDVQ
Assay: Human FXR (NR1H4) Assay: Gal4 promoter driven luciferase reporter transactivation in CHO cells (Indigo Bioscience kit IB00601); as to Efficacy (%): efficacy normalized to CDCA set as 100%
Format: cell-based
Settings: for Emax: CHO, read-out: Efficacy (%); for EC50: Human FXR (NR1H4) reporter assay, potency ranges
Description: Human FXR (NR1H4) Assay Determination of a ligand mediated Gal4 promoter driven transactivation to quantify ligand binding mediated activation of FXR. FXR Reporter Assay kit purchased from Indigo Bioscience (Catalogue number: IB00601) to determine the potency and efficacy of compound developed by Enanta that can induce FXR activation. The principle application of this reporter assay system is to quantify functional activity of human FXR. The assay utilizes non-human mammalian cells, CHO (Chinese hamster ovary) cells engineered to express human NR1H4 protein (referred to as FXR). Reporter cells also incorporate the cDNA encoding beetle luciferase which catalyzes the substrates and yields photon emission. Luminescence intensity of the reaction is quantified using a plate-reading luminometer, Envision. Reporter Cells include the luciferase reporter gene functionally linked to an FXR responsive promoter. Thus, quantifying changes in luciferase expression in the treated reporter cells provides a sensitive surrogate measure of the changes in FXR activity. […] The assay is according to the manufacturer's instructions. In brief, the assay was performed in white, 96 well plates using final volume of 100 ul containing cells with different doses of compounds. Retrieve Reporter Cells from −80° C. storage. Perform a rapid thaw of the frozen cells by transferring a 10 ml volume of 37° C. cell recovery medium into the tube of frozen cells. Recap the tube of Reporter Cells and immediately place it in a 37° C. water bath for 5-10 minutes. Retrieve the tube of Reporter Cell Suspension from the water bath. Sanitize the outside surface of the tube with a 70% alcohol swab, and then transfer it into the cell culture hood. Dispense 90 μl of cell suspension into each well of the 96-well Assay Plate. Transfer the plate into 37° C. incubator, allowing the cells adherent to the bottom of the well. Dilute compounds in Dilution Plate (DP), and administrate to cells at Assay Plate (AP). DMSO content of the samples was kept at 0.2%. Cells were incubated for additional 22 hours before luciferase activities were measured. Thirty minutes before intending to quantify FXR activity, remove Detection Substrate and Detection Buffer from the refrigerator and place them in a low-light area so that they may equilibrate to room temperature. Remove the plate's lid and discard all media contents by ejecting it into an appropriate waste container. Gently tap the inverted plate onto a clean absorbent paper towel to remove residual droplets. Cells will remain tightly adhered to well bottoms. Add 100 ul of luciferase detection reagent to each well of the assay plate. Allow the assay plate to rest at room temperature for at least 5 minutes following the addition of LDR. Set the instrument (Envision) to perform a single 5 second “plate shake” prior to reading the first assay well. Read time may be 0.5 second (500 mSec) per well.

SMILES	Emax	EC50
CC(C)S(=O)(=O)NC(=O)c1ccc2nc(N3C4CCC3CC(NCc3c(-c5c(Cl)cccc5Cl)noc3C3CC3)C4)sc2c1 (centres unmarked) [Example 237]	226%	1 to 100 nM
CC(C)(C)CS(=O)(=O)NC(=O)c1ccc2nc(N3C4CCC3CC(NCc3c(-c5c(Cl)cccc5Cl)noc3C3CC3)C4)sc2c1 (centres unmarked) [Example 239]	201%	1 to 100 nM
CC(C)(C)S(=O)(=O)NC(=O)c1ccc2nc(N3C4CCC3CC(NCc3c(-c5c(Cl)cccc5Cl)noc3C3CC3)C4)sc2c1 (centres unmarked) [Example 240]	245%	< 1 nM
O=C(NS(=O)(=O)c1ccccc1)c1ccc2nc(N3C4CCC3CC(NCc3c(-c5c(Cl)cccc5Cl)noc3C3CC3)C4)sc2c1 (centres unmarked) [Example 257]	203%	1 to 100 nM
O=C(NS(=O)(=O)c1nccs1)c1ccc2nc(N3C4CCC3CC(NCc3c(-c5c(Cl)cccc5Cl)noc3C3CC3)C4)sc2c1 (centres unmarked) [Example 268]	129%	100 to 1000 nM
CN(c1nc2ccc(C(=O)NS(=O)(=O)N(C)C)cc2s1)C1CCC(OCc2c(-c3c(Cl)cccc3Cl)noc2C2CC2)CC1 (centres unmarked) [Example 279]	158%	100 to 1000 nM
CN(C)S(=O)(=O)NC(=O)c1ccc2nc(N3C4CCC3CN(Cc3c(-c5c(Cl)cccc5Cl)noc3C3CC3)C4)sc2c1 [Example 280]	242%	1 to 100 nM
CN(C)S(=O)(=O)NC(=O)c1ccc2nc(N3CCN(Cc4c(-c5c(Cl)cccc5Cl)noc4C4CC4)CC3)sc2c1 [Example 281]	171%	1 to 100 nM
CN(C)S(=O)(=O)NC(=O)c1ccc2nc(N3CCC(NCc4c(-c5c(Cl)cccc5Cl)noc4C4CC4)CC3)sc2c1 [Example 282]	142%	1 to 100 nM
CN(C)S(=O)(=O)NC(=O)c1ccc2nc(N3C4CCC3CC(NCc3c(-c5c(Cl)cccc5Cl)noc3C3CC3)C4)sc2c1 (centres unmarked) [Example 283]	246%	> 1000 nM
CC(C)(C)c1ccc(S(=O)(=O)NC(=O)c2ccc3nc(N4C5CCC4CC(NCc4c(-c6c(Cl)cccc6Cl)noc4C4CC4)C5)sc3c2)cc1 (centres unmarked) [Example 284]	54%	> 1000 nM
CC(C)(C)c1ccc(S(=O)(=O)NC(=O)c2cccc(N3CCN(Cc4c(-c5c(Cl)cccc5Cl)noc4C4CC4)CC3)c2)cc1 [Example 285]	126%	100 to 1000 nM
O=C(NS(=O)(=O)C1CC1)c1ccc2nc(N3CCC(NCc4c(-c5c(Cl)cccc5Cl)noc4C4CC4)CC3)sc2c1 [Example 291]	171%	1 to 100 nM
CN(Cc1c(-c2c(Cl)cccc2Cl)noc1C1CC1)[C@H]1C[C@H]2CC[C@@H](C1)N2c1nc2ccc(C(=O)NS(=O)(=O)C3CC3)cc2s1 [Example 292]	212%	1 to 100 nM
CN(Cc1c(-c2c(Cl)cccc2Cl)noc1C1CC1)[C@H]1C[C@H]2CC[C@@H](C1)N2c1nc2ccc(C(=O)NS(=O)(=O)C3(C)CC3)cc2s1 [Example 293]	92%	1 to 100 nM
CC1(S(=O)(=O)NC(=O)c2ccc3nc(N4C5CCC4CC(N(C=O)Cc4c(-c6c(Cl)cccc6Cl)noc4C4CC4)C5)sc3c2)CC1 (centres unmarked) [Example 294]	130%	> 1000 nM
CC1(S(=O)(=O)NC(=O)c2cc(F)c3nc(N4C5CCC4CC(NCc4c(-c6c(Cl)cccc6Cl)noc4C4CC4)C5)sc3c2)CC1 (centres unmarked) [Example 295]	152%	1 to 100 nM
[2H]C([2H])([2H])C1(S(=O)(=O)NC(=O)c2cc(F)c3nc(N4C5CCC4CC(NCc4c(-c6c(Cl)cccc6Cl)noc4C4CC4)C5)sc3c2)CC1 (centres unmarked) [Example 296]	184%	< 1 nM
CN(C)S(=O)(=O)NC(=O)c1cc(F)c2nc(N3C4CCC3CC(NCc3c(-c5c(Cl)cccc5Cl)noc3C3CC3)C4)sc2c1 (centres unmarked) [Example 297]	150%	< 1 nM

SMILES	Emax	EC50
O=C(NS(=O)(=O)C1CC1)c1cc(F)c2nc(N3C4CCC3CC(NCc3c(-c5c(Cl)cccc5Cl)noc3C3CC3)C4)sc2c1 (centres unmarked) [Example 298]	155%	1 to 100 nM
O=CC1(S(=O)(=O)NC(=O)c2cc(F)c3nc(N4C5CCC4CC(NCc4c(-c6c(Cl)cccc6Cl)noc4C4CC4)C5)sc3c2)CC1 (centres unmarked) [Example 299]	154%	1 to 100 nM
O=C(NS(=O)(=O)N1CCCCC1)c1cc(F)c2nc(N3C4CCC3CC(NCc3c(-c5c(Cl)cccc5Cl)noc3C3CC3)C4)sc2c1 (centres unmarked) [Example 300]	143%	< 1 nM
CN(C)S(=O)(=O)NC(=O)c1ccc2nc(N3C4CCC3CC(NCc3c(-c5c(Cl)cccc5Cl)noc3C3CC3)C4)oc2c1 (centres unmarked) [Example 301]	63%	< 1 nM
CC1(S(=O)(=O)NC(=O)c2ccc3nc(N4C5CCC4CC(NCc4c(-c6c(Cl)cccc6Cl)noc4C4CC4)C5)oc3c2)CC1 (centres unmarked) [Example 302]	62%	1 to 100 nM
COc1cc(C(=O)NS(=O)(=O)C2(C)CC2)cc2sc(N3C4CCC3CC(NCc3c(-c5c(Cl)cccc5Cl)noc3C3CC3)C4)nc12 (centres unmarked) [Example 304]	139%	< 1 nM
CC1(S(=O)(=O)NC(=O)c2ccc3nc(N4CCC(NCc5c(-c6c(Cl)cccc6Cl)noc5C5CC5)CC4)sc3c2)CC1 [Example 305]	139%	100 to 1000 nM
CC1(S(=O)(=O)NC(=O)c2cc(OC(F)F)c3nc(N4C5CCC4CC(NCc4c(-c6c(Cl)cccc6Cl)noc4C4CC4)C5)sc3c2)CC1 [Example 323, 2-((1R,3r,5S)-3-(((5-cyclopropyl-3-(2,6-dichlorophenyl)isoxazol-4-yl)methyl)amino)-8-azabicyclo[3.2.1]octan-8-yl)-4-(difluoromethoxy)-N-((1-methylcyclopropyl)sulfonyl)benzo[d]thiazole-6-carboxamide]	150%	< 1 nM
O=C(NS(=O)(=O)N1CCCCC1)c1cc(OC(F)F)c2nc(N3C4CCC3CC(NCc3c(-c5c(Cl)cccc5Cl)noc3C3CC3)C4)sc2c1 (centres unmarked) [Example 328]	146%	< 1 nM
COc1nc2cc(C(=O)NS(=O)(=O)C3(C)CC3)ccc2nc1N1C2CCC1CC(NCc1c(-c3c(Cl)cccc3Cl)noc1C1CC1)C2 (centres unmarked) [Example 342]	76%	1 to 100 nM
O=C(NS(=O)(=O)N1CCCC1)c1cc(F)c2nc(N3C4CCC3CC(NCc3c(-c5c(Cl)cccc5Cl)noc3C3CC3)C4)sc2c1 (centres unmarked) [Example 400-1]	210%	1 to 100 nM
CC(C)Oc1cc(C(=O)NS(=O)(=O)C2CC2)cc2sc(N3CCC(NCc4c(-c5c(Cl)cccc5Cl)noc4C4CC4)CC3)nc12 [Example 400-3]	104%	1 to 100 nM
CC(C)Oc1cc(C(=O)NS(=O)(=O)C2(C)CC2)cc2sc(N3CCC(NCc4c(-c5c(Cl)cccc5Cl)noc4C4CC4)CC3)nc12 [Example 400-4]	97.5%	1 to 100 nM
CC(C)Oc1cc(C(=O)NS(=O)(=O)N2CCCC2)cc2sc(N3CCC(NCc4c(-c5c(Cl)cccc5Cl)noc4C4CC4)CC3)nc12 [Example 400-5]	110%	1 to 100 nM
CC(C)Oc1cc(C(=O)NS(=O)(=O)N2CCCCC2)cc2sc(N3CCC(NCc4c(-c5c(Cl)cccc5Cl)noc4C4CC4)CC3)nc12 [Example 400-6]	73.5%	1 to 100 nM
O=C(NS(=O)(=O)N1CCCC1)c1cc(F)c2nc(N3CCC(NCc4c(-c5c(Cl)cccc5Cl)noc4C4CC4)CC3)sc2c1 [Example 400-7]	91%	1 to 100 nM
O=C(NS(=O)(=O)N1CCCCC1)c1cc(F)c2nc(N3CCC(NCc4c(-c5c(Cl)cccc5Cl)noc4C4CC4)CC3)sc2c1 [Example 400-8]	79%	1 to 100 nM
O=C(NS(=O)(=O)C1CC1)c1cc(F)c2nc(N3CCC(NCc4c(-c5c(Cl)cccc5Cl)noc4C4CC4)CC3)sc2c1 [Example 400-9]	37.5%	100 to 1000 nM
